Paper PMC11096781, “Population pharmacokinetics of intravenous daptomycin in critically ill patients: implications for selection of dosage regimens” (Frontiers in Pharmacology, 2024)
“Also recorded” adds a separate entry of the source.

Tests used:
[1] = cited from earlier work
[2] = Text: Plasma samples were collected from patients who received an intravenous infusion of daptomycin in the intensive care unit (ICU) of Zhongnan Hospital of Wuhan University from April 2021 to December 2022 according to the inclusion and exclusion criteria and the clinical sample sampling protocol for blood drug concentration testing. Patients who fulfilled the following criteria were eligible: ≥18 years old; treated with daptomycin for proven/probable infections caused by Gram-positive organisms that were unresponsive or intolerant to other antimicrobial agents. The exclusion criteria were pregnancy, known or suspected hypersensitivity to daptomycin and its excipients, and incomplete or missing laboratory data before and after treatment.
Daptomycin (Jiangsu Hengrui Medicine Co., Ltd.) dissolved in 100 mL normal saline was administered as a 30-min infusion. The daptomycin dose was 500 mg every 24 h. To obtain a complete blood drug concentration time curve after administration, we took into account the equilibrium phase (near peak concentration) and elimination phase of the drug in the design of sampling time points. On the first day of administration, blood samples were collected at 0, 0.5, 1, 2, 4, 8, 12, and 24 h after infusion. On the third day of administration, blood samples were collected before administration and at 0, 0.5, 1, 2, 4, 8, 12, and 24 h after infusion. On the fifth and seventh days, blood samples were collected before administration and at 0.5 and 4 h after infusion. Blood was drawn and allowed to clot in yellow blood-collecting tubes containing separating glue and a coagulant accelerator. Serum was collected by centrifugation and stored at −80°C until assayed. As soon as the study dose was administered, the participants were monitored for potential side effects. Serious adverse events were defined as adverse events related to daptomycin that required treatment discontinuation.
Serum daptomycin concentrations were measured using a high-performance liquid chromatography-tandem mass spectrometry method developed in our laboratory, the lower limit of quantification was 0.05 μg mL^−1. Briefly, serum samples were analyzed after protein precipitation. Daptomycin-d5 (Beijing Hager Biotechnology Co., Ltd.) was used as an internal standard. A Waters ACQUITY UPLC C8 column (2.1 mm × 50 mm, 1.7 μm) was used for separation. The mobile phase consisted of phase A: water (0.1% formic acid), phase B: 1:1 methanol: acetonitrile (0.1% formic acid) at a flow rate of 0.4 mL min^−1, column temperature of 45°C, injection volume of 2 μL, and analysis time of 4 min. Ion transitions were performed using positive electrospray ionization in the multiple reaction monitoring mode.
Before measurement, the sample was restored to room temperature, 100 μL of 1:1 methanol: acetonitrile was measured into a […] EP tube, then 10 μL of daptomycin-d5 with 40 μL of sample/standard/quality control was added, the sample was vortex shaken for 1 min, centrifuged at high speed for 8 min (14,500 r/min), and the supernatant was placed in a 96-well plate for the assay.
NONMEM (version 8.1; ICON Development Solutions, Hanover, MD, United States) was used to establish a population PK model for daptomycin and to perform Monte Carlo simulations ([Bauer et al., 2007]). The ADAPT-TRAN program was used for pre- and post-processing ([Savic et al., 2009]). This study explored one- and two-compartment models of population PK of daptomycin. The two-compartment, disposition model was parameterised in terms of total clearance (CL), volume of distribution in the central compartment (VC), volume of distribution in the peripheral compartment (VP), and intercompartmental clearance (Q). The first order conditional estimation with inter- and intra-subject variability interaction (FOCE-I) was employed for all model runs. The inter-individual variability (η) was described using lognormal distributions, and a mixed additive and proportional model was chosen for residual variability (Ɛ). […]

[3] = Monitoring of creatinine phosphokinase (CPK) and adverse reactions during treatment; type: in vivo, human; conditions: 64 critically ill patients, 500 mg q24h i.v., during the treatment period
Description: Demographic and clinical characteristics of the enrolled patients were also collected from the medical records, including age, sex, weight, diagnosis, comorbidities, outcome, combination of other drugs (including antimicrobials), daily complete blood counts, biochemical test results (including liver and renal function and creatinine phosphokinase (CPK)), and whether CRRT or ECMO therapy was performed. In addition, acute physiology and chronic health evaluation (APACHE) and sequential organ failure assessment (SOFA) scores were calculated for each patient to determine disease severity. The patient’s creatinine clearance (CLCR) was calculated according to the Cockcroft-Gault formula based on serum creatinine at steady state on day 3.
The daptomycin dose was 500 mg every 24 h.

[4] = bootstrap analysis with 1000 samples

## CCCCCCCCCC(=O)N[C@@H](Cc1c[nH]c2ccccc12)C(=O)N[C@H](CC(N)=O)C(=O)N[C@@H](CC(=O)O)C(=O)N[C@@H]1C(=O)NCC(=O)N[C@@H](CCCN)C(=O)N[C@@H](CC(=O)O)C(=O)N[C@H](C)C(=O)N[C@@H](CC(=O)O)C(=O)NCC(=O)N[C@H](CO)C(=O)N[C@@H]([C@H](C)CC(=O)O)C(=O)N[C@@H](CC(=O)c2ccccc2N)C(=O)O[C@@H]1C [daptomycin, Daptomycin]
[1]; ref Dvorchik et al., 2004
  metabolism by liver enzymes: not metabolized by liver enzymes
[1]; ref Enoch et al., 2007
  eliminated by the kidneys: 78%
[1]; ref Hawkey, 2008
  half-life: approximately 8 h
[2]; [4]
  Q, bootstrap median: 2.086 L/h
  VC, bootstrap median: 4.14 L
  VP, bootstrap median: 3.527 L
[2]; human, in vivo
  CL, renal part: coefficient of CCR/54 in the final covariate model: 0.148 L/h
  CRRT clearance, bootstrap median: 0.386 L/h
  NR (no renal clearance), bootstrap median: 0.231 L/h
  Q: 2.13 ± 0.17 L/h
  R (renal clearance), bootstrap median: 0.15
  R (renal clearance), final model estimate: 0.152
  V1: 4.20 ± 0.19 L
  V2: 3.67 ± 0.25 L
  non-renal clearance rate (CLNR) of non-CRRT patients: 0.23 ± 0.05 L/h
  renal clearance part (CLR), coefficient × (CCR/54): 0.14 ± 0.035
[2]; human, in vivo, iv
  NR (no renal clearance), final model estimate: 0.229 L/h
  Q (intercompartmental clearance), final model estimate: 2.09 L/h
  VC (volume of distribution in the central compartment), final model estimate: 4.14 L
  VP (volume of distribution in the peripheral compartment), final model estimate: 3.52 L
  clearance: 6.43 mL/min
[2]; sex as covariate in forward inclusion, not retained in the final model
  VP of males relative to females: approximately 1.4 times
[3]
  CPK elevation or other adverse reactions related to daptomycin: No increase in CPK or other adverse reactions; also recorded: no elevation of CPK associated with daptomycin was found
